From patent US20220175777A1, “Inhibitors of Multidrug Resistance Transporter P-Glycoprotein” (Southern Methodist University, priority 2014, published 2022)

Key:
DU145TXR [1] = assay: Resensitization of DU145TXR to paclitaxel by 29 variants (MTT cell viability); type: cell-based, human; details: for Fold vs PTX ÷ 29: compared to parental compound 29
From the text: The Group 1 ChemGen/docking routine produced variants of P-gp inhibitor 29 resensitize a multidrug resistant, P-gp overexpressing prostate cancer cell line to paclitaxel. The mitochondrial reduction potential of cells is often used as an indicator for cell viability using MTT assays^40-42. Using these assays it was observed that the five Group 1 derivatives of 29 predicted through the ChemGen/docking routine and synthesized here, 216, 227, 231, 541 and 551, re-sensitized the P-gp overexpressing prostate cancer cell line, DU145TXR^33, to the chemotherapeutic, paclitaxel (FIG. 9, showing results of assays at concentrations of 3 μM, 5 μM, 7 μM, and 10 μM).
Cytotoxicity of the chemotherapeutic, paclitaxel (PTX) to P-gp overexpressing prostate cancer cells, DU145TXR, was determined in the absence and presence of the ChemGen designed 29-variants, 216, 227, 231, 541 and 551. For each experimental compound IC50 values of PTX alone or in the presence of inhibitors, fold improvement of PTX sensitivity in the presence of inhibitor, and fold improvement of PTX sensitivity by variants compared to parental compound 29 are given.

P-gp = P-gp (Homo sapiens, UniProt P08183)
Method: Stimulation of basal ATPase by 29-variants was used as an indicator that a compound may be a P-gp transport substrate. Effects on stimulated P-gp ATPase activity indicated whether a compound directly interfered with ATP usage by the protein (***, p<0.001; **, p<0.01; *, p<0.1; NS, not significant). Quantitative cellular accumulation of 29-variants was performed using LC-MS/MS and is presented as a ratio of the cellular amounts of 29-variants in the presence of P-gp inhibitor, tariquidar, divided by amounts accumulated in its absence. […] Binding of an ATP analog, SL-ATP, to P-gp was used to determine whether ATP binding to P-gp was affected by the 29-variants. Values+/−standard deviations are shown for at least three different P-gp preparations and three independent SL-ATP titration experiments. The values for SL-ATP binding in the presence of 29 were taken directly from Brewer et al. (2014).
Intracellular accumulation of compound 29 variants. Cell accumulation assays for each of the 29 variants were performed as in reference^28 to more directly assess whether the compounds were indeed transport substrates for P-gp.

DU145 = assay: Intrinsic toxicity, MTT survival; type: cell-based; details: Homo sapiens, DU-145, 48 hours, ± standard error
Method: (§1) Percent survival determined by MTT assay calculated relative to cells treated with equal volume DMSO vehicle and represent the mean±SEM from 2-4 separate studies, each study performed in triplicate wells.
(§2) The intrinsic in vitro toxicities of identified compounds were evaluated to determine their potential therapeutic window. This was assessed in a noncancerous cell line (HFL1) and the human prostate cancer cell lines DU145 and the MDR sub-line DU145TxR.

DU145TXR [2] = assay: Intrinsic toxicity, MTT survival; type: cell-based, human; details: Homo sapiens; intrinsic toxicity, 48 hours, MTT; ± standard error
Method: as §1, §2

DU145TXR [3] = assay: Potentiation of 500 nM paclitaxel cytotoxicity (MTT); type: cell-based, human
Method: FIGS. 4A and 4B show the in silico identified P-gp inhibitors potentiate the cytotoxic effects of paclitaxel in the MDR human prostate cancer cell line DU145TxR. […] Values represent the mean±SEM of at least two separate experiments performed in triplicate.
A range of experimental inhibitor concentrations was added in the presence of 500 nM paclitaxel and the cell viability was assessed using the MTT assay.
In order to compare the efficacy of inhibitors, the potentiation concentration of inhibitor resulting in 50% reduction in cell viability, PC50, in the presence of 500 nM paclitaxel was calculated from the data in FIG. 4A.

DU145TXR [4] = assay: Dose dependent sensitization of MDR cell line to paclitaxel (MTT); type: cell-based, human; details: 25 μM compound
Method: FIGS. 6A to 6C show the dose dependent sensitization of MDR prostate cancer cell line DU145TxR. […] For reference, the DU145TxR (closed circle) and DU145 (open circle) incubated with paclitaxel only are also included. Values are mean±SEM from at least 2 separate experiments performed in triplicate wells. The data were normalized to the intrinsic toxicities as determined in studies from FIGS. 5A to 5C of each of the compounds for each of the corresponding concentrations.
Dose Dependent Sensitization of MDR Prostate Cancer Cell Line: To determine the degree to which the MDR prostate cancer cell line DU145TxR could be sensitized to paclitaxel the inventors determined cell survival at increasing concentrations of paclitaxel in the presence of three concentrations of P-gp inhibitors. FIGS. 6A, 6B and 6C show the survival of DU145TxR at increasing concentration of paclitaxel in the presence of 5 μM, 10 μM and 25 μM of the experimental compounds, respectively. The open circles represent the parental DU145 cell line in the presence of paclitaxel without addition of any inhibitor compound. The closed circles represent the survival of the multidrug resistant DU145TxR in the presence of paclitaxel alone. […] At that concentration over 10-fold increase in paclitaxel sensitivity in DU145TxR is observed compared to DU145TxR without P-gp inhibitors. Doubling the concentration of the compounds to 10 μM approximately doubled the DU145TxR sensitivity to paclitaxel.

DU145-TxR = assay: Re-sensitization to Paclitaxel or Doxorubicin at 25 μM compound (MTT); type: cell-based, human; details: 48 hours
Method: FIGS. 3A-3B are plots that show an example of the re-sensitization of a multidrug resistant prostate cancer cell line to two different chemotherapeutics using the prostate cancer derived cell line, DU145 and the multidrug-resistant variant, DU145-TxR. […] Cell viability was measured by the MTT (3-(4,5-dimethylthiazol-2-yl)-2,5-diphenyl tetrazolium bromide assay conducted as described previously. After 48 hours of treatment with Paclitaxel or Doxorubicin alone or in the presence of 25 μM compound 29, 34, or 45 media was removed and cells were washed twice with phosphate buffered saline (PBS) and MTT assay was conducted 24 hours later. Data expressed as mean±SEM.

[5] = target: T1, Cysteineless Mouse MDR3 P-glycoprotein (Mus musculus, UniProt P21447, C1070A/C1121A/C1223A/C133A/C427A/C638A/C669A/C713A/C952A); details: cited from earlier work
T1 construct: made in house; host or cells: Pichia pastoris
T1 sequence (P21447 whole entry C133A/C427A/C638A/C669A/C713A/C952A/C1070A/C1121A/C1223A): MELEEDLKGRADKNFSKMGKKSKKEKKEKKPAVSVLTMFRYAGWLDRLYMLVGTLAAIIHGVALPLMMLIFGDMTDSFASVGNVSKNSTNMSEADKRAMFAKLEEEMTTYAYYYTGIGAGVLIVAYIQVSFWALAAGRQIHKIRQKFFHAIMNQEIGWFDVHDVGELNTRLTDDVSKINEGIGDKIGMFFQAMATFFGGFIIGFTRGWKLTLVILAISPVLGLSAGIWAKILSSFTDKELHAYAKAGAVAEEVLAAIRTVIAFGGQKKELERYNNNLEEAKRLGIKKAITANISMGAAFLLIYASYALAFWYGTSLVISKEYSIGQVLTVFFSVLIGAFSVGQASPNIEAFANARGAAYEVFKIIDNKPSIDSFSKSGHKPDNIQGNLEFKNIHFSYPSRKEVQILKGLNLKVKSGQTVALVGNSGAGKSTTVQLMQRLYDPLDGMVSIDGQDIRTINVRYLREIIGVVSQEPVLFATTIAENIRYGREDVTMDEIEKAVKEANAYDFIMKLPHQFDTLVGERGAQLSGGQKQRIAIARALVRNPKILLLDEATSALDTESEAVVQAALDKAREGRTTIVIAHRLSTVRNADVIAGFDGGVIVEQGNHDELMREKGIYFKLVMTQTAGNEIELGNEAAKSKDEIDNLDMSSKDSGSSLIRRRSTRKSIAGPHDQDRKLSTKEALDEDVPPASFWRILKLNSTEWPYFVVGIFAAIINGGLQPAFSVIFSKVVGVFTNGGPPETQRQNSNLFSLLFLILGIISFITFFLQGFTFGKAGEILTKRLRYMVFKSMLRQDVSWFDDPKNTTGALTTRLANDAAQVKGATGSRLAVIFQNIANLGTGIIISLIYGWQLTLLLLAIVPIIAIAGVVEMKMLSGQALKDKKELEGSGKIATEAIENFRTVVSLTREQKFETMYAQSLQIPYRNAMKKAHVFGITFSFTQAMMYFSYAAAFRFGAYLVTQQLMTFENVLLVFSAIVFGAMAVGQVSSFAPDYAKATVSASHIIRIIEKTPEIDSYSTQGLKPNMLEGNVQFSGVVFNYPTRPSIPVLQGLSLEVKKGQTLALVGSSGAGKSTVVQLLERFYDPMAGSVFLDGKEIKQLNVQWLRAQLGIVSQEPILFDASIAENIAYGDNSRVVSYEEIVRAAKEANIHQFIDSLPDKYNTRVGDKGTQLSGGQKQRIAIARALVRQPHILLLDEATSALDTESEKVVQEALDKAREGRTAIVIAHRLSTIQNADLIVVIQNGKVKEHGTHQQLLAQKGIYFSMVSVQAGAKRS

P-gp, sequence (P08183 whole entry): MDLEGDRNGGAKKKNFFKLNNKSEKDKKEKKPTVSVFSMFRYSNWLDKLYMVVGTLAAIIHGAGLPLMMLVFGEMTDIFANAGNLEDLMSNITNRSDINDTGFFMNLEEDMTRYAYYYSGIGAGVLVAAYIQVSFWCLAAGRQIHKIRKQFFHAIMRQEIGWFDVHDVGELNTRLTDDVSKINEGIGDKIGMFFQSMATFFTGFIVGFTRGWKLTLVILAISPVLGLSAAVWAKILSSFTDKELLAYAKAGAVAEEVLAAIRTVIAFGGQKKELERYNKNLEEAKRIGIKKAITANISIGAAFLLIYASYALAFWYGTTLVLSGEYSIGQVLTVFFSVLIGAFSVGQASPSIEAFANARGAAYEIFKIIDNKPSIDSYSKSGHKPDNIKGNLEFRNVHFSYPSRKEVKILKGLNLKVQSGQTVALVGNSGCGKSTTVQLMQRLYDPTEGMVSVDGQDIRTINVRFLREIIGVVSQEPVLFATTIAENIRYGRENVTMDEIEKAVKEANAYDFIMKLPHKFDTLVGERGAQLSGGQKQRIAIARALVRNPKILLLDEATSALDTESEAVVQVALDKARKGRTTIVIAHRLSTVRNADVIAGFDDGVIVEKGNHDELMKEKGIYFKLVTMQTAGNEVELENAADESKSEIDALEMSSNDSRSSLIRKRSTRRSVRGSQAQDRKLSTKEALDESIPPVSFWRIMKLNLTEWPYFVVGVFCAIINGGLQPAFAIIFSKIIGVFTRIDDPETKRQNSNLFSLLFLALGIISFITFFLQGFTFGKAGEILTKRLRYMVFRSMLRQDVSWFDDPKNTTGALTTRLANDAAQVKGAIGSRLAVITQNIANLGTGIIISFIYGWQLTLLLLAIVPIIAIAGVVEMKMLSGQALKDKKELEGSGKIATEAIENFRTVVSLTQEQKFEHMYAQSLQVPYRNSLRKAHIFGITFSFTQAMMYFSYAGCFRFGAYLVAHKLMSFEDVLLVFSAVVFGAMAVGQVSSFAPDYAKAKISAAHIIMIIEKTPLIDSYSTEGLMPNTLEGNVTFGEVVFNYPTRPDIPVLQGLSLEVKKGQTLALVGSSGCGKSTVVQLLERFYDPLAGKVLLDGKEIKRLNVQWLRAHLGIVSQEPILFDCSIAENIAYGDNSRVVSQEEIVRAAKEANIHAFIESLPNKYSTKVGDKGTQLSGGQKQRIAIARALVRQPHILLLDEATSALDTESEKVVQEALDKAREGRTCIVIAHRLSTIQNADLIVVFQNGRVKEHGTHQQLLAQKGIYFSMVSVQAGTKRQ

SMILES: Cc1cc(C)c(-c2cc(NC(=O)CSc3n[nH]c(C4CC4)n3)n(-c3ccccc3)n2)cc1C [SMU-29, 2-[(5-cyclopropyl-1H-1,2,4-triazol-3-yl)sulfanyl]-N-[2-phenyl-5-(2,4,5-trimethylphenyl)pyrazol-3-yl]acetamide]
- Fold vs PTX ÷ 29 (DU145TXR [1]; 3 μM inhibitor): 1 Fold
- Fold vs PTX (DU145TXR [1]; 3 μM inhibitor, fold improvement of PTX sensitivity vs PTX alone): 3 Fold
- Fold vs PTX ÷ 29 (DU145TXR [1]; 5 μM inhibitor): 1 Fold
- Fold vs PTX (DU145TXR [1]; 5 μM inhibitor, vs PTX alone): 11 Fold
- Fold vs PTX ÷ 29 (DU145TXR [1]; 7 μM inhibitor): 1 Fold
- Fold vs PTX (DU145TXR [1]; 7 μM inhibitor, vs PTX alone): 36 Fold
- Fold vs PTX ÷ 29 (DU145TXR [1]; 10 μM inhibitor): 1 Fold
- Fold vs PTX (DU145TXR [1]; 10 μM inhibitor, vs PTX alone): 101 Fold
- Intracellular accumulation in the presence versus absence of TQR (P-gp): no significant difference
- Transport substrate for P-gp (P-gp; not told): not a transport substrate
- IC50 (DU145): 33.4 ± 0.01 µM
- IC50 (DU145TXR [2]): 37.9 ± 0.02 µM
- Effect on paclitaxel sensitivity (DU145TXR [3]; 50 nM-25 μM inhibitor with 500 nM paclitaxel): strongly affected the sensitivity
- EC50 (DU145TXR [3]; in the presence of 500 nM paclitaxel, 48 hours, read-out: PC50, potentiation concentration of inhibitor resulting in 50% reduction in cell viability): 2.33 ± 0.01 µM
- Sensitization to paclitaxel (DU145TXR [4]): 800 fold
- Chemotherapeutic sensitivity of MDR cell line (Paclitaxel or Doxorubicin) (DU145-TxR): restores chemotherapeutic sensitivity
- Effect on SL-ANP binding ([5]; ESR data of Brewer et al. (2014)): not interfere with ATP binding
- Maximum ATP binding mol SL-ANP bound/mol P-gp ([5]; in presence of 29, taken from Brewer et al. (2014)): 1.9 ± 0.1^1 mol SL-ANP bound/mol P-gp
